Test results: patent US20090247634A1, “Methods for identifying modulators of eoxin formation” (priority 2006, published 2009)
“And” between values parts separate entries of the source, which are not always exact repeats. Equal values may be shown once. Blank lines part the entries; values can stand above or below the compound they belong to.

Tests used:
[1] = test system: eosinophils; assay: Biosynthesis of 14,15-LTC4 and LTC4 in eosinophils (RP-HPLC); type: cell-based, human; settings: ionophore A23187 (1 μM), 5 min, 37° C.; one line per donor 1-11
Procedure: (§1) Human eosinophils contain abundant amounts of both 15-lipoxygenase and 5-lipoxygenase. […] The cells were incubated for five minutes at 37° C. and the amounts of 14,15-LTC4 and LTC4 were analyzed with RP-HPLC. […] Therefore, measurement of these metabolites is considered to reflect the total formation of 15-lipoxygenase derived cysteinyl-containing 14,15-leukotrienes and 5-lipoxygenase derived cysteinyl-containing leukotriens, respectively.
(§2) Isolated eosinophils (1-20×10^6/sample) were resuspended in phosphate buffered saline (1 ml/sample) and pre-incubated for 2 minutes in 37° C. (in presence or absence of indomethacin, 1 μM) prior to stimulation with ionophore A23187 (1 μM)/arachidonic acid (1 or 10 μM)/A23187 plus arachidonic acid/PGD2 (1 μM)/LTC4 (1 μM)/IL-5 (10 ng/ml)/14,15-LTC4 (10 μM) or 14,15-LTD4 (10 μM) for indicated time periods at 37° C. The incubations were terminated by addition of one volume of methanol (for analysis by RP-HPLC). For subsequent analysis by enzyme immunoassay (EIA), reactions were terminated by rapid cool off, 0° C., before centrifugation at 1200×g, 5 min. Supernatants were transferred to cryo tubes and stored in −70° C. until analyzed.
In order to get rid of cellular debris and proteins, centrifugation at 1200×g for 5 min. was performed. Supernatants were evaporated under reduced pressure and the residues resolved in methanol and transferred to a test tube. Samples were thereafter evaporated to dryness under a stream of nitrogen, and finally resuspended in 200 μl mobile phase (acetonitril:methanol:H20:acetic acid, 29:19:72:0.8, pH adjusted to 5.6 with NH3 for analysis of leukotrienes and 14,15-leukotrienes, and methanol:water:trifluoroacetic acid 70:30:0.007 for analysis of monohydroxy acids). The extracted samples were subjected to analysis in a reverse phase HPLC system as described. Briefly, samples were applied to a octadecyl reverse phase column (Chromabond ^18C, Macherey-Nagel, Duren, Germany) and elution rate was 1.2 ml/minute.

[2] = test system: Hodgkin cell line L1236; assay: Inhibition of EoxC4 formation in the human cell line L1236; type: cell-based
Procedure: […] After pre-incubation with the test substance for 5 minutes, arachidonic acid (40 μM) was added. Incubation was stopped after 2 minutes with addition of one volume of methanol. Each test substance concentration was incubated in duplicate.
Cells and cell debris were removed by centrifugation (2600 rpm, 6 min) from the samples. The supernatant was diluted with water and then transferred to a washed and equilibrated extraction cartridge, Oasis HLB 1 cc 10 mg (Waters, Sweden). The metabolites were eluted with methanol and diluted with water before injected to the HPLC system.
RP-HPLC was performed on a Nova Pak C18 column (2.1×150 mm, Waters AB, Sweden). The initial mobile phase consists of 100% A (0.05% (8.7 mM) acetic acid, with pH adjusted to 5.6 with ammonium) at a flow rate at 0.4 mL/min. A linear gradient was started after five minutes to 36% B (60:40 acetonitrile:methanol) at 20 minutes. The mobile phase was than held isocratic at 64:36, A:B for another 20 minutes. Column effluent was monitored using diode array detection (PDA 996, Waters AB, Sweden) and UV spectra were acquired between 200-340 nm.
[…] Incubation and extraction was performed as described above.

[3] = test system: eosinophils; assay: Receptor mediated activation of 14,15-LTC4 biosynthesis in eosinophils (EIA); type: cell-based, human; settings: LTC4 (1 μM), PGD2 (1 μM) or IL-5 (10 ng/ml), 5 min, 37° C.
Procedure: A possible receptor mediated activation of 14,15-LTC4 formation was investigated by using the allergen induced mast cell mediators LTC4 and prostaglandin (PG) D2 as well as IL-5, which is a potent eosinophil activator. Isolated eosinophils (10×10^6/sample) were incubated for 5 min, at 37° C. with LTC4 (1 μM), PGD2 (1 μM) or IL-5 (10 ng/ml). Leukotriene C4, PGD2 and IL-5 all induced release of 14,15-LTC4 from eosinophils after 5 min of incubation (table 2).
as §2
Supernatants were diluted in EIA buffer and analyses were performed according to the manufacturer's protocol. The optical density (OD) from the EIA determinations was used to calculate % B/B0 according to the relationship: […]

[4] = test system: eosinophils; assay: Inhibitor studies on formation of Eoxin C4 and LTC4 in eosinophils; type: cell-based, human; settings: 2 min preincubation, A23187 (1 μM) and arachidonic acid, 5 min, 37° C.
Procedure: Isolated eosinophils (5-10×10^6/sample) were resuspended in phosphate buffered saline (1 ml/sample) and preincubated for 2 minutes in 37° C. prior to stimulation with Eox A4 (10 μM), LTA4 (10 μM) or both for 5 minutes in 37° C. Alternatively, for inhibitor studies, eosinophils were preincubated for 2 minutes in 37° C. in presence of BW70C (1 μM) or MK886 (10 μM) prior to stimulation with ionophore A23187 (1 μM) and arachidonic acid (40 μM) for 5 minutes in 37° C. The reactions were terminated by addition of three volumes of methanol. Metabolites were detected and quantified utilising Waters 996 photodiode array spectrophotometer connected to Waters 1996 HPLC system.

[5] = test system: eosinophils; assay: Metabolism in eosinophils after 5 min of incubation
Procedure: as §1

[6] = test system: neutrophils; assay: Oxidative metabolism of neutrophils, lucigenin-enhanced chemiluminescence; type: cell-based, human
Procedure: (§3) Neutrophil and eosinophil granulocytes were purified from peripheral whole blood using a Percoll gradient and the magnetic cell separation system (MACS).
(§4) Granulocytes were primed for 30 minutes at 37° C. with either IL-5 (10.5 ng/mL) or GM-CSF (10.5 ng/mL) and subsequently stimulated with IL-5 (100 ng/mL), GM-CSF (100 ng/mL), LTB4 (10^−7M) or Eoxin (10^−8-10^−6M). Oxidative metabolism was measured by a lucigenin-enhanced chemiluminescence (CL) assay.

[7] = test system: confluent bovine endothelium cells; assay: Endothelial cell barrier function (TEER), Example 6a; type: cell-based; settings: for plasma leakage / change in TEER: 10^−7 and 10^−8 M; for potency relative to the most potent 5-lipoxygenase derived leukotrienes: FIG. 22
Procedure: Bovine aorta endothelial cells (BAEC) and human umbilical vein endothelial cells (HUVEC) were isolated and cultured with calf serum or human serum. BAEC or HUVEC in the first to fifth passages were detached by brief (2 min) trypsin-EDTA treatment (0.25% trypsin/0.01% EDTA) and replated onto 3.0 μm pore size polycarbonate filters (Tissue Culture inserts, 10 mm; NUNC, Roskilde, Denmark) or, for the purpose of visual inspection, 0.2 μm pore size Anopore inorganic membrane (transparent when wet). In order to promote cellular differentiation and enhance attachment of EC, the filters were pretreated with 50 μl Biomatrix 1 (167 μg/ml) and air-dried. EC were seeded at a density of 2×10^5 cells per filter and incubated in culture medium at 37° C. in a humidified atmosphere of 5% CO2 in air. The EC were grown to confluent monolayers, as assessed by daily microscopic observation, in transparent 0.2 μm pore size filters and measurement of the electrical resistance across the monolayer. Under these experimental conditions maximal resistance is obtained at day 7 postseeding, at which day the EC monolayers were then used in the experiments.
Rapid changes in endothelial cell (EC) barrier function in response to various arachidonic acid metabolites were analysed through continuous registration of transendothelial electrical resistance (TEER) with electrodes on each side of EC monolayer^18. For measurement of TEER, the filter insert with ECs was transferred to a resistance measurement chamber (Endohm-12, World Precision Instruments, Sarasota, Fla., USA) modified so as to assure exact positioning of the electrodes in relation to each other and to the filter insert daring repeated measurements. The chamber (low compartment) and the filter insert (upper compartment) were filled with 2 ml and 400 μl culture medium, respectively. All measurements were made at 37° C. with the equipment placed in a cell culture incubator. Direct readings of the electrical resistance were given by an ohmmeter (Evom, World Precision Instruments, Sarasota, Fla., US) connected to the electrodes of the resistance chamber. The electrical resistance of individual EC monolayers was obtained by subtracting the resistance of the corresponding naked filter coated with Biomatrix as measured prior to seeding of the EC. Thus, TEER values represent the resistance of the EC monolayer solely and depend on the development of tight junctions between adjoining endothelial cells.

[8] = test system: eosinophils; assay: Oxidative metabolism of eosinophils, lucigenin-enhanced chemiluminescence; type: cell-based, human
Procedure: as §3, §4

[9] = Non-enzymatic metabolism during incubation at 37° C.; type: physicochemical; settings: 60 min incubation at 37° C.
Procedure: In order to analyze if eosinophils can metabolize 14,15-LTC4 to 14,15-LTD4 and 14,15-LTE4, eosinophils were incubated with synthetic 14,15-LTC4 or 14 (R)-cysteinyl-glycyl-15(S)-hydroxy-5,8,10,12(Z,Z,E,E)-eicosatetraenoic acid (14,15-LTD4) for 60 min at 37° C. The metabolites formed were analyzed with product ion scan at 497.2 m/z for 14,15-LTD4 and 440.2 m/z for 14,15-LTE4. The retention time and mass spectrum of a product formed (Metabolite 2) from 14,15-LTC4 were identical to synthetic 14,15-LTD4 (FIG. 30B), and a product formed (Metabolite 3) after incubation with 14,15-LTD4 had identical retention time and mass spectrum as synthetic 14 (R)-cysteinyl-15(S)-hydroxy-5,8,10,12(Z,Z,E,E)-eicosatetraenoic (14,15-LTE4) (FIG. 30C). […] (data not shown). Basically, the product ion mass spectra of 14,15-leukotrienes and corresponding 5-lipoxygenase derived cysteinyl-leukotrienes are almost identical. However, 14,15-leukotrienes form a fragment at 205 m/z, whereas the corresponding fragment in 5-lipoxygenase derived cysteinyl-leukotrienes is at 189 m/z (FIG. 31). These collision induced dissociation products are probably formed by a cleavage next to the carbon where the cysteinyl group is positioned, which is at carbon 14 for 14,15-leukotrienes and carbon 6 for leukotrienes.

Compound: CNc1ccc2oc(C[C@H]3O[C@@]4(CC[C@H]3C)O[C@H]([C@H](C)C(=O)c3ccc[nH]3)[C@H](C)C[C@H]4C)nc2c1C(=O)O [Compound A23187]
14,15-LTC4 [1]: 0 pmol/10^7 | LTC4 [1]: 198 pmol/10^7 and 494 pmol/10^7 and 82 pmol/10^7 and 108 pmol/10^7 and 64 pmol/10^7 and 326 pmol/10^7 and 170 pmol/10^7 and 30 pmol/10^7 and 264 pmol/10^7 and 50 pmol/10^7 and 40 pmol/10^7

Compound: CCCCCC#CCC#CCC#CCC#CCCCC(=O)O [ETYA, Eicosatetraynoic acid]
formation of EoxC4 ([2]; ETYA 10^−4-4 M, FIG. 26): completely blocked | formation of EoxD4 ([2]; ETYA 10^−4-4 M, FIG. 26): completely blocked | formation of EoxC4 ([2]; ETYA 10^−5-5 M): decreased | formation of EoxD4 ([2]; ETYA 10^−5-5 M): decreased

14,15-LTC4 [3]: 43.8 ± 16.9 pg/10^7 cell
Compound: CCCCC[C@H](O)/C=C/[C@H]1C(=O)C[C@H](O)[C@@H]1C/C=C\CCCC(=O)O [PGD2, prostaglandin D2]

Compound: CC(C)c1ccc2c(c1)c(SC(C)(C)C)c(CC(C)(C)C(=O)O)n2Cc1ccc(Cl)cc1 [MK886]
EoxC4 synthesis ([4]; MK886 10 μM): blocked

14,15-LTC4 [3]: 56.2 ± 42.5 pg/10^7 cell | metabolism in eosinophils [5]: almost no metabolism
Compound: CCCCC/C=C\C\C=C/C=C/C=C/[C@@H](SC[C@H](NC(=O)CC[C@H](N)C(=O)O)C(=O)NCC(=O)O)[C@@H](O)CCCC(=O)O [LTC4, leukotriene C4]

14,15-LTC4 [3]: 131 ± 4.9 pg/10^7 cell
Compound: IL-5: IL-5, which is a potent eosinophil activator

Compound: GM-CSF: the cytokine GM-CSF, a known activator of the oxidative metabolism
oxygen free radical production by non-primed neutrophils ([6]; non-primed blood neutrophils, GM-CSF 100 ng/mL, LTB4 10^−7M, Eoxin 10^−8-10^−6M): induced the oxygen free radical production

Compound: CCCCC[C@H](O)[C@@H](/C=C/C=C/C=C\C/C=C\CCCC(=O)O)SC[C@H](N)C(=O)O [EoxE4, 14 (R)-cysteinyl-15 (S)-hydroxy-5,8,10,12 (Z,Z,E,E)-eicosatetraenoic acid]
plasma leakage / change in TEER [7]: induce significant plasma leakage | potency relative to the most potent 5-lipoxygenase derived leukotrienes [7]: about five to ten times less potent | radical production by IL-5 primed eosinophils ([8]; IL-5 (10.5 ng/mL) primed, Eoxin 10^−8-10^−6M): broad dose-related induction of the radical production | responders ([8]; IL-5 primed eosinophils): 3 of 6 subjects

Compound: CC(/C=C/c1cccc(Oc2ccc(F)cc2)c1)N(O)C(N)=O (stereo not shown) [BW70C]
LTC4 peak (LTC4 formation) ([4]; BW70C 1 μM): totally abolished

non-enzymatic metabolism [9]: no non-enzymatic metabolism
Compound: CCCCC[C@H](O)[C@@H](/C=C/C=C/C=C\C/C=C\CCCC(=O)O)SC[C@H](N)C(=O)NCC(=O)O [EoxD4, 14 (R)-cysteinyl-glycyl-15 (S)-hydroxy-5,8,10,12 (Z,Z,E,E)-eicosatetraenoic acid]
plasma leakage / change in TEER [7]: induce significant plasma leakage | potency relative to the most potent 5-lipoxygenase derived leukotrienes [7]: about five to ten times less potent | radical production by GM-CSF primed neutrophils ([6]; GM-CSF (10.5 ng/mL) primed, Eoxin 10^−8-10^−6M): induced the radical production by primed cells in a dose-dependent manner | responders ([6]; GM-CSF primed neutrophils): 7-10 subjects of 13
